Numbers after ± are expanded uncertainties.
Assay: cn = amount concentration of the nth substance listed, in mol/dm3
Details: 298.15 K, 101 kPa, Liquid, c1 = 1

speed of sound (Sing-around technique in a fixed-path interferometer): 1561.4 ± 1.3 m/s
mass density (Vibrating tube method): 1023.26 ± 0.12 kg/m3
SMILES: CNCC(=O)O [sarcosine] + O
